# How the values were obtained:
# [1] = tested on: primary human chondrocytes; experiment: Dehydroascorbate transport assay in isolated primary human chondrocytes; format: cell-based; conditions: for ability to compete with L-14C-DHA transport: 2 mM unlabeled competitor; for mode of inhibition of L-14C-DHA transport (Dixon plot): data not shown; for inhibition of DHA transport: 0.1 mM inhibitor, p<0.001; for increase in L-14C-DHA uptake versus 21% oxygen tension: 24 hours
# Procedure: Dehydroascorbate Transport Assay in Isolated Primary Human Chondrocytes. DHA transport was measured using a modified version of the uptake assay published by Wilson and Dixon (Wilson J X, Dixon S J. High-Affinity Sodium-Dependent Uptake of Ascorbic Acid by Rat Osteoblasts. J. Mem. Biol. 1989; 111:83-91). Primary human chondrocytes were seeded at a density of 4.5×10^5 cells/well on a 6-well plate. Prior to the transport assay, cells were plated for 48 hours in DMEM/F12, containing 10% FCS but no AA or DHA. Cells were washed in transport buffer containing: 134 mM LiCl, 5.4 mM KCl, 1.8 mM CaCl2, 0.8 mM MgSO4, 20 mM HEPES, pH 7.3 with KOH. DHA uptake was assessed by incubating the chondrocytes in transport buffer containing 189 μM L-^14C-dehydroascorbate (L-^14C-DHA). […] The standard DHA transport assay conditions were 37° C./5% CO2/21% O2 for 10 min. DHA uptake was terminated by washing the cells four-times in ice-cold PBS. […] The total pmol of L-^14C-DHA transported was calculated using the total dpm of L-^14C-DHA transported and the specific activity of the radiolabel.
# Matrix Biol. 2002; 21:175-184). Stock solutions of different unlabeled DHA forms were generated in the same manner as the L-^14C-DHA. […]
# [2] = tested on: primary human chondrocytes; experiment: Ascorbic acid transport assay in isolated primary human chondrocytes; format: cell-based; conditions: for suppression of L-14C-Asc transport by unlabeled competitor: 2 mM competitor, versus no competitor; for ability to compete with L-14C-Asc for transport: 2 mM unlabeled competitor
# Procedure: Ascorbic Acid Transport Assay in Isolated Primary Human Chondrocytes. AA transport was measured using a modified version of the uptake assay published by Wilson and Dixon (J. X. Wilson, S. J. Dixon, High-Affinity Sodium-Dependent Uptake of Ascorbic Acid by Rat Osteoblasts, J. Mem. Biol. 111 (1989) 83-91). Primary human chondrocytes were seeded at a density of 4.5×10^5 cells/well on a 6-well plate (or 2.25×10^5 cells/well on a 12-well plate for the kinetic experiments). Prior to the transport assay, cells were plated for 48 hours in DMEM/F12, containing 10% FCS but no AA. Cells were washed in transport buffer containing: 134 mM NaCl, 5.4 mM KCl, 1.8 mM CaCl2, 0.8 mM MgSO4, 10 mM D-glucose, 20 mM HEPES, pH 7.3 with NaOH. […] The standard AA transport assay conditions were 37° C./5% CO2 for 10 minutes. AA uptake was terminated by washing the cells four-times in ice-cold PBS. The cells were lysed with Puregene Cell Lysis Solution (Gentra Systems) and scintillation counting was performed in Uniscint BD (National Diagnostics).
# In experiments with sodium free transport buffer, iso-osmotic concentrations of LiCl were substituted for NaCl. […]
# [3] = tested on: primary human chondrocytes; experiment: BP / BP-AA uptake assay in chondrocyte monolayer (HPLC); format: cell-based
# Procedure: Uptake Assay Methods. Primary human chondrocytes were seeded at a density of 4.5×10^5 cells for 48 hours. The cells were washed with ascorbic acid transport buffer. The free bisphosphonate (BP) and the bisphosphonate conjugated to ascorbic acid (BP-AA) were solubilized in ascorbic acid transport buffer at 10 mM concentration. The cells were incubated with either the free BP or the BP-AA for an hour at 37° C./5% CO2. The cells were washed 4× with ice-cold PBS to remove any extracellular BP or BP-AA. The cells were then lysed in 250 μl ddH2O for 15 minutes on ice, sonicated for 5 minutes, and then scraped from the culture dish. The lysate was then analyzed by ion pair reverse phase HPLC with UV and electrochemical detection (ECD) as described below.
# HPLC Methods. Ascorbic acid, free and conjugated, and risedronate analogs were determined by a modification of an ion pair reverse phase high-performance liquid chromatography method initially described by Vallano et al. (Vallano, P. T., Shugarts, S. B., Kline, W. F., Woolf, E. J., and Matuszewski, B. K., Determination of Risedronate in Human Urine by Column-Switching Ion-Pair High-Performance Liquid Chromatography with Ultraviolet Detection. J Chromatogr B Analyt Technol Biomed Life Sci, 2003, 794:23-33). The column consisted of a C18 packing, the mobile phase contained 8% acetonitrile and 92% of 0.005M Q8 (1-octyltriethylammonium phosphate [Regis Technologies, Morton Grove, Ill.]) and 1 mM etidronate (1-hydroxyethylidene-1,1-diphosphonic acid [Strem Chemicals, Newburyport, Mass.]) in a sodium phosphate buffer, pH 6.2, and was pumped at […]. The injection volume was 100 μl and detection was at 262 nm (UV) and 0.7V (ECD).
# [4] = tested on: human articular cartilage explants; conditions: 50 µM
# From the text: Cartilage explants were isolated from human knee articular cartilage surgical waste tissues at the time of knee replacement surgery (n=5). Cartilage was harvested from non-lesioned areas, using a 2 mm diameter micro dissecting trephine (Biomedical Research Instruments, Rockville, Md.). A group of five cartilage plugs was pooled to constitute one sample. Each sample was paired with a corresponding sample from the same specimen and the same sites. The cartilage plugs were weighed and then transferred to a 24-well plate, containing 1 ml wash media (described in the chondrocyte isolation procedure). The cartilage plugs were incubated in 1 ml DMEM/F12 (Gibco, Grand Island, N.Y.) with 10% FCS (Gibco) and no AA for 48 hours at 37° C./5% CO2, prior to the procedures below.
# The cartilage explants were washed with PBS and half of the samples were transferred to 1.5 ml centrifuge tubes with a drop of PBS. The tubes were frozen in liquid nitrogen for three minutes and thawed at 37° C. for five minutes. This freeze/thaw procedure was performed for a total of three cycles. The dead explants were transferred back to the 24-well plates.
# Explant Ascorbic Acid Transport Assay. […] Samples were processed to isolate the cells from the matrix fraction (see Intracellular versus Extracellular AA) or counted for radioactivity by transferring the whole explants to glass scintillation vials and solubilizing the samples overnight at room temperature in 0.5 ml Solulene 350 (Perkin Elmer Life and Analytical Services, Boston, Mass.). Hionic Fluor scintillation fluid (5 ml, Perkin Elmer Life and Analytical Services) was added, and radioactivity was counted in the live and dead explants, using a scintillation counter.
# Explant isolation, explant treatments, and the explant AA transport assay (through the PBS wash step) were performed, followed by the chondrocyte isolation procedure described above. After the cell fraction was isolated from the matrix, the cells were washed, then 15 μl of the cells were counted on a hemacytometer, in order to determine the total number of cells in the cell fraction. […]
# [5] = 100 μM inhibitor, 10 minutes, p<0.001
compound,measurement,setting,value
"O=C1O[C@H]([C@@H](O)CO)C([O-])=C1O.[Na+] [Na L-Asc, Na L-ascorbate]",ability to compete with L-14C-DHA transport,[1]; 10 min,able to effectively compete
same,suppression of L-14C-Asc transport by unlabeled competitor,"[2]; 10 minutes, p<0.001",75%
"O=C(CCC(=O)OCC(O)C1OC(=O)C(O)=C1O)Nc1ccc(NC(P(=O)(O)O)P(=O)(O)O)nc1 [BP-AA, 6-O-{N-[6-[(bisphosphonomethyl)amino]pyridin-3-yl]}succinyl-L-ascorbic acid]",transport of BP-AA versus AA alone,"[3]; 10 mM BP-AA, one hour",143 fold
same,amount gaining entry to chondrocytes in monolayer,"[3]; 10 mM, one hour, 37° C.",2281 nmol/mg protein
same,inhibition at 10000 µM,"[3]; Homo sapiens, Chondrocyte, 1 h, 10 mM BP-AA, one hour, no sodium, read-out: inhibition of BP-AA uptake in the absence of sodium",50%
"O=C1O[C@H]([C@H](O)CO)C(O)=C1O [D-Asc, D-isoascorbic acid]",ability to compete with L-14C-DHA transport,[1]; 10 min,able to effectively compete
same,mode of inhibition of L-14C-DHA transport (Dixon plot),[1],non-competitive inhibitors
same,ability to compete with L-14C-Asc for transport,[2]; 10 minutes,unable to effectively compete
C[C@H]1C/C=C/[C@H]2[C@@H]3O[C@]3(C)[C@@H](C)[C@H]3[C@H](Cc4ccccc4)NC(=O)[C@]32OC(=O)O/C=C/[C@@](C)(O)C1=O [cytochalasin E],inhibition of DHA transport,[1]; 10 min,40%
same,inhibition of L-14C-Asc transport,[2]; [5],35%
O=C1C(CC[S+]([O-])c2ccccc2)C(=O)N(c2ccccc2)N1c1ccccc1 (stereo not shown) [sulfinpyrazone],inhibition at 100 µM,"[3]; Homo sapiens, Chondrocyte, 0.75 h, 100 μM sulfinpyrazone, 45 minutes in advance of 10 mM BP-AA",~75%
same,inhibition at 100 µM,"[2]; Homo sapiens, Chondrocyte, 10 min, 100 μM inhibitor, 10 minutes, p<0.001, read-out: inhibition of L-14C-Asc transport",~65%
"O=C1O[C@@H]([C@H](O)CO)C(=O)C1=O [D-DHA, D-dehydroascorbate]",ability to compete with L-14C-DHA transport,[1]; 10 min,able to effectively compete
"O=C1OC(C(O)CO)C(=O)C1=O [DHA, L-dehydroascorbate]",ability to compete with L-14C-DHA transport,[1]; 10 min,able to effectively compete
same,increase in DHA transport versus 21% oxygen tension,"[1]; human, 10 min, 189 µM, pH 7.3",2.7 fold
same,increase of DHA transport versus 21% oxygen tension,"[1]; human, 10 min, 189 µM, pH 7.3",3.2 fold
same,"increase of DHA transport versus 21% oxygen tension, mean","[1]; human, 10 min, 189 µM, pH 7.3",3.5 fold
same,passive diffusion of DHA as share of transport under optimized conditions,"[1]; human, 10 min, 189 µM, pH 7.3",11%
same,ability to compete with L-14C-Asc for transport,[2]; 10 minutes,unable to effectively compete
L-^14C-dehydroascorbate [L-^14C-DHA],increase in L-14C-DHA uptake versus 21% oxygen tension,"[1]; 2.5% oxygen, absence of glucose",1.6 fold
same,increase in L-14C-DHA uptake versus 21% oxygen tension,[1]; 5% oxygen,no increase
same,14C-DHA Uptake (change versus 21% oxygen tension),"[1]; O2 tension 5%, 24 hrs",No change
C=C1[C@@H](C)[C@H]2[C@H](Cc3ccccc3)NC(=O)[C@]23OC(=O)/C=C/[C@H](O)CCC[C@@H](C)C/C=C/[C@H]3[C@@H]1O [cytochalasin B],inhibition of DHA transport,[1]; 10 min,95%
same,inhibition of L-14C-Asc transport,[2]; [5],40%
Na D-dehydroascorbate [Na D-DHA],ability to compete with L-14C-DHA transport,[1]; 10 min,unable to compete
Na L-dehydroascorbate [Na L-DHA],ability to compete with L-14C-DHA transport,[1]; 10 min,able to effectively compete
"O=C1O[C@H]([C@@H](O)CO)C(O)=C1O [L-Asc, L-ascorbic acid]",ability to compete with L-14C-DHA transport,[1]; 10 min,able to effectively compete
same,mode of inhibition of L-14C-DHA transport (Dixon plot),[1],non-competitive inhibitors
same,"calculated intracellular concentration of total AA, deep zone cells",[4],45 mM
same,"calculated intracellular concentration of total AA, middle zone cells",[4],51 mM
same,"calculated intracellular concentration of total AA, superficial zone cells",[4],67 mM
same,vMax for AA transport in chondrocytes,"[2]; 0-500 μM L-14C-Asc, Michaelis-Menten",148+/−35 pmol L-^14C-Asc/10^6 cells/10 minutes
same,Km,"[2]; 0-500 μM L-14C-Asc, Michaelis-Menten, read-out: Km for AA transport in chondrocytes",179 µM
same,concentration of unlabeled L-Asc at which the transporter is fully saturated,"[2]; 200 μM L-14C-Asc, 10 minutes",approximately 1000 μM
same,suppression of L-14C-Asc transport by unlabeled competitor,"[2]; 10 minutes, p<0.001",approximately 60%
"O=C1O[C@H]([C@H](O)CO)C([O-])=C1O.[Na+] [Na D-Asc, Na D-isoascorbate]",ability to compete with L-14C-DHA transport,[1]; 10 min,able to effectively compete
same,ability to compete with L-14C-Asc for transport,[2]; 10 minutes,unable to effectively compete

# From patent US8247572B2, “Facilitated transport of bisphosphonates by vitamin C” (Duke University, priority 2005, dated 2012)
